Measurements: patent US11020383B2, “Methods for the treatment of cancer metastasis” (THE BOARD OF REGENTS OF THE UNIVERSITY OF TEXAS SYSTEM, priority 2017, dated 2021)
“Also recorded” adds a separate entry of the source.

What was measured:
[1] = test system: human prostate cancer androgen resistant C4-2 cells; experiment: Growth of primary tumor in nude mice xenografted with C4-2 cells; format: in vivo
Excerpt: In the vehicle-treated mouse, the tumor grew by size more than twice in the span of four weeks, whereas in the B1-treated mouse the tumor shrunk to about 50% of the size at the start of treatment (FIG. 2).
As shown herein, B1 exerts anti-metastatic actions with multiple mechanisms. First, the drug attenuates the growth of the primary tumor. Large tumors shed large number of metastasis seeding circulating tumor cells into circulation, thus increasing the chance of successful colonization of metastatic sites.
(§1) Importantly, in the second, third and fourth mechanisms, the drug acts independently from the size of primary tumor. This was an unexpected effect.

[2] = test system: M1 and M2 macrophages; experiment: Enumeration of circulating M1 and M2 macrophages in blood of xenografted mice; format: in vivo, nude mice
Experimental: (§2) CTCs and macrophages were isolated from the blood of two nude mice xenografted with human prostate cancer androgen resistant C4-2 cells and treated biweekly intratumorally with vehicle or B1 (30 mg/kg). In the vehicle-treated mouse, the tumor grew by size more than twice in the span of four weeks, whereas in the B1-treated mouse the tumor shrunk to about 50% of the size at the start of treatment (FIG. 2).
However, the numbers of circulating macrophages were also much lower in the blood of the B1-treated mouse. […] Consistently, the ratios of pro-tumor and anti-tumor macrophages in control and B1-treated mouse were approximated as 2.5 and 0.5, respectively.
Third, the drug boosts natural anti-cancer immune response. It promotes anti-metastatic profile of macrophages co-purifying with CTCs in the nude mice xenografted with human cultured androgen-independent prostate cancer cells C4-2, and treated with vehicle or with B1 (30 mg/kg). […] Data from one control and one treated mouse are presented in FIG. 5, with data from seven control and six treated mice presented below.

[3] = test system: circulating tumor cells (CTCs); experiment: Enumeration of circulating tumor cells in blood of xenografted mice; format: in vivo, nude mice
Experimental: as §2
The anti-tumor actions of B1 in nude mice were confirmed by analysis of circulating tumor cells (CTCs). Enumeration of CTCs is used as a prognostic marker in cancer patients. The enumeration was extended to include not only canonical CTCs positive for epithelial marker EpCAM, but also EpCAM negative CTC-like cells positive for markers of epithelial-mesenchymal transition (EMT), indicative of increased aggressiveness of the cells (Chen et al., 2013).

[4] = test system: M2-polarized macrophages from U937 cells; experiment: Live cell counts of U937-derived M2-type model macrophages; format: cell-based, Human; details: 1 μM B1, T test, n=4
Experimental: (§3) FIGS. 17A-B: Model M2-polarized macrophages are sensitive to the treatment with B1, in contrast to model M1-polarized macrophages. (FIG. 17A) Human cultured monocytic U937 cells were in vitro differentiated into M0 macrophages and then polarized into M1-type and M2-type macrophages, in the presence of vehicle (DMSO; control) or in the presence of 1 μM B1. The inventors used established protocol to differentiate U937 cells into macrophages (M0) with PMA (phorbol myristate acetate) and then polarize them into model M1 and M2-like types with interferon γ and LPS (lipopolysaccharide) or interleukins IL-4 and IL-13, respectively. The identity of M1-type and M2-type model macrophages was confirmed by cell staining with specific markers: the fluorescent antibodies recognizing surface proteins CD80 (for M1) and CD163 (for M2). (FIG. 17B) Counts of live cells cultured in the presence or absence of B1 are presented.
(§4) And fourth, the anti-M2 macrophages actions were confirmed in cell culture model.

[5] = test system: human cultured androgen-independent prostate cancer cells C4-2; experiment: Efficacy study in NOD-SCID mice xenografted with C4-2 cells; format: in vivo
Experimental: FIG. 18. […] The efficacy study was performed with mice xenografted with human cultured androgen-independent prostate cancer cells C4-2. The study involved eleven NOD-SCID mice. […] tumor-growing mice were treated intra-tumorally (IT) with 30 mg/kg B1 twice a week for up to three weeks. The control group (four mice) received a B1 vehicle (dimethylsulfoxide; DMSO). Tumor sizes were measured twice a week.

[6] = B1 maximum tolerated dose study; format: in vivo
Experimental: A study to determine the maximum tolerated dose was performed on 30 female CB. 17 SCID mice divided into six groups, five animals each. B1 was administered intravenously (i.v.) once a day (q.d.; three groups) or biweekly (three groups), at concentrations of 3 mg/kg, 10 mg/kg or 30 mg/kg, dissolved in 5% ethanol, 5% cremophor in water with 5% dextrose [D5W]. Mice were treated for 28 days, weighted daily on days 1-5 and then on a twice weekly schedule until day 28. They were observed frequently for adverse effects of treatment. […] Thus, B1 is non-toxic for mice even at the highest tested dose, 30 mg/kg.

[7] = test system: circulating tumor cells (CTCs); experiment: Biophysical profiling of CTCs by atomic force microscopy (PF QNM AFM); format: in vivo, nude mice; details: CTCs from blood of B1-treated vs control mice
Excerpt: It was postulated that the differences in profiles of circulating macrophages, which may destroy CTCs or help them in seeding metastases, are indicative of the metastatic potential of CTCs. To determine the metastatic potential of CTCs isolated from the blood of human prostate cancer patients and mouse cancer models, biophysical profiling by atomic force microscopy (AFM) was employed. This method was used to confirm the decreased aggressiveness of CTCs isolated from the B1-treated mouse.
In short, to determine the mechanical phenotype of cells Peak Force Quantitative Nanomechanical Atomic Force Microscopy (PF QNM AFM) imaging was employed. AFM is a type of stylus profilometry. In this particular AFM technique, a micro-sized probe (tip) interacts with a cell surface with strictly controlled force. At each point of contact, the tip position and the “force plot” presenting mechanical interactions of the tip with a cell surface are recorded. Images are created during raster scanning by the tip. The parameters extracted from the force plots are assembled into topographical (cell morphology) and mechanical maps. The mechanical parameters include elasticity (i.e., pressure needed to indent the cell in a reversible manner), deformation (i.e., the depth of maximal indentation enforced by the probe without breaking the cell membrane), and adhesion (i.e., force needed to lift the tip from the cell surface during the probe withdrawal).
A single AFM scan also provides a shape of the cell to distinguish between epithelial-like and mesenchymal-like phenotypes, and roughness of the cell surface that correlates with activity of apoptotic and EMT pathways (Chen et al, 2013; Osmulski et al., 2014). The integrated inverted fluorescent microscope allows collecting correlative immunocytochemical data about the scanned cells (FIG. 7).
The probe (tip on a cantilever) indents (vertical movement) and scans (lateral movement) the cell surface. After 10-15 min scan of a 1000-2000 μm^2 area, 5 maps of cell morphology, surface topography, elasticity, deformation, and adhesion (FIG. 6) are computed from the force plots (FIG. 7) created for each of the 4000-65,500 single tip-cell contact points with horizontal resolution of 100 nm, vertical resolution of 10 nm and forces as low as 100 pN. It is established that cancerous cell are much softer, deformable and more adhesive than their normal counterparts (Osmulski et al., 2014).
Second, the drug decreases aggressiveness of CTCs. The decrease is apparent by comparison of mechanical phenotypes of CTCs isolated from mice xenografted with human cultured androgen-independent prostate cancer cells C4-2, and treated with vehicle or with B1 (30 mg/kg). The data are presented in FIGS. 11-16 and in Table 1 (FIG. 11 is an extended version of FIG. 8).

[8] = test system: proteasome; details: cited from earlier work
[9] = test system: cultured breast cancer cells; details: breast cancer cells poorly responsive to bortezomib; cited from earlier work
[10] = test system: human C4-2 prostate cancer cells; experiment: Liver micrometastasis by H&E histology in C4-2 tumor-bearing nude mice; format: in vivo
Excerpt: FIG. 10: H&E stained histological liver slices of control nude mice with a tumor induced using human C4-2 prostate cancer cells. Suspected micrometastasis sites are marked with black rings. A scale bar represents 500 μm. Micrometastasis was detected with an average frequency in the control group (untreated) 3.75 per mice, whereas in the B1 treated group it was 1.33 per mice.
as §1

[11] = test system: M1-polarized macrophages from U937 cells; experiment: Live cell counts of U937-derived M1-type model macrophages; format: cell-based, Human; details: 1 μM B1, n=4
Experimental: as §3, §4

[12] = test system: mTOR pathway; details: cited from earlier work
[13] = PD/PK study in mice xenografted with RPMI 8226 cells; format: in vivo, SCID mice; details: single 30 mg/kg i.v.
Experimental: The study involved 11 female SCID mice, with 3 control mice injected with vehicle (5% ethanol, 5% cremophor in water with 5% dextrose [D5W]) and […] injected with B1. The presence of B1 was detected by mass spectrometry in the tumors of B1-injected mice 8 and 12 hours post-injection, at concentrations up to 30.5 ng/g.

[14] = B1 treated vs control mice (FIG. 16)
[15] = mice with xenografted prostate tumors
[16] = one B1-treated vs one vehicle mouse (FIG. 5)
[17] = seven control and six treated nude mice, B1 30 mg/kg

Q: Which “tumor size relative to the size at the start of treatment” value ([1]; one nude mouse, C4-2 xenograft, B1 30 mg/kg intratumorally biweekly, four weeks (FIG. 2)) does the source give for `COc1cc(CCCOC(=O)C2CCCCN2C(=O)C(=O)C2CCCCC2)cc(OC)c1OC` (stereo not drawn) [Compound B1, 3-(3,4,5-trimethoxyphenyl)propyl 1-(2-cyclohexyl-2-oxoacetyl) piperidine-2-carboxylate] here?
A: Its value is “about 50%”.

Q: And the “difference in tumor volume increase between control and B1-treated tumors” value ([1]; selected group of seven control and six B1-treated mice)?
A: The value was “no significant difference”.

Q: What about the “ratio of pro-tumor (M2) and anti-tumor (M1) macrophages” value ([2]; B1-treated mouse, blood (control mouse 2.5)) of the same molecule?
A: The value was about 0.5.

Q: What about the “formation of CTC-M2 (chaperoning) clusters” value [2, 14] of the same molecule?
A: Its value is “limited formation”.

Q: What about the “formation of M1-CTC (predatory) clusters” value [2, 14] of the same molecule?
A: Its value is “enhanced formation”.

Q: What about the “decrease of chaperone immune cells (M2 macrophages) vs vehicle” value [2, 15] of the same molecule?
A: The value was “about four-fold”.

Q: What about the “decrease of the ratio of M2 macrophages to M1 macrophages vs vehicle-treated mouse” value [2, 15] of the same molecule?
A: Its value is “five-fold”.

Q: What about the “M2 pro-tumor macrophages, control mouse relative to B1-treated mouse” value [2, 16] of the same molecule?
A: Its value is “more than four-times”.

Q: What about the “number of M1 predator (anti-tumor) macrophages vs control mouse” value [2, 16] of the same molecule?
A: Its value is “very similar”.

Q: What about the “numbers of circulating macrophages vs vehicle-treated mouse” value ([2]; one B1-treated vs one vehicle mouse, 30 mg/kg intratumorally) of the same molecule?
A: Its value is “much lower”.

Q: And the “number of anti-cancer M1-type macrophages vs control” value [2, 17]?
A: Its value is “larger number”.

Q: What about the “number of pro-cancer M2-type macrophages vs control” value [2, 17] of the same molecule?
A: The value was “generally lower number”.

Q: And the “number of highly invasive post-EMT CTCs” value [3, 14]?
A: The value was “diminished”.

Q: What about the “formation of CTCs clusters” value ([3]; B1 treated vs control mice, heat map cluster analysis (FIG. 16)) of the same molecule?
A: The value was “diminished formation”.

Q: And the “decrease of abundance of cancer cells in the blood stream vs vehicle” value [3, 15]?
A: Its value is “about five-fold”.

Q: What about the “numbers of CTCs in blood vs vehicle-treated mouse” value ([3]; one B1-treated vs one vehicle mouse, 30 mg/kg intratumorally, EpCAM or vimentin (FIG. 4)) of the same molecule?
A: Its value is “significantly lower”.

Q: And the “counts of live M2-type model macrophages vs control” value [4]?
A: The value was “significantly attenuating viability; also recorded: the difference was statistically significant”.

Q: And the “changes in the weight of animals” value ([5]; 30 mg/kg B1 intra-tumorally twice a week)?
A: The value was “did not result in detectable changes”.

Q: What about the “tumor growth vs control group” value ([5]; 30 mg/kg B1 intra-tumorally twice a week for up to three weeks (FIG. 18)) of the same molecule?
A: The value was “Significant inhibition; also recorded: significantly attenuated”.

Q: What about the “toxicity at the highest tested dose” value ([6]; 30 mg/kg i.v., mice) of the same molecule?
A: Its value is “non-toxic”.

Q: What about the “adverse effects on behavior” value ([6]; i.v. q.d. or biweekly, 3, 10 or 30 mg/kg, 28 days) of the same molecule?
A: The value was “no adverse effects”.

Q: And the “differences in body weight between the groups” value ([6]; i.v. q.d. or biweekly, 3, 10 or 30 mg/kg, 28 days (FIG. 9))?
A: Its value is “No statistically significant differences”.

Q: And the “CTC adhesion vs vehicle” value ([7]; AFM (FIG. 8, FIG. 11))?
A: Its value is “less adhesive”.

Q: What about the “CTC deformation vs vehicle” value ([7]; AFM (FIG. 8, FIG. 11)) of the same molecule?
A: Its value is “less deformable”.

Q: And the “CTC stiffness (elasticity, Young modulus) vs vehicle” value ([7]; AFM (FIG. 8, FIG. 11))?
A: Its value is “harder; also recorded: stiffer”.

Q: And the “aggressiveness of CTCs” value ([7]; mechanical phenotype)?
A: Its value is “low aggressiveness; also recorded: significantly lowered aggressiveness”.

Q: And the 26S assembling [8]?
A: Its 26S assembling is “interferes with 26S assembling”.

Q: And the “affinity of core particle toward bortezomib” value [8]?
A: Its value is “increases affinity”.

Q: And the “concentration at which proteasome activities are influenced” value [8]?
A: The value was “nanomolar concentrations”.

Q: And the “cytotoxic effects with bortezomib” value [9]?
A: The value was “strong cytotoxic effects”.

Q: And the “incidence of micrometastases in livers vs controls” value ([10]; B1-treated mice (FIG. 10))?
A: The value was “decreased incidence”.

Q: What about the “average frequency of liver micrometastasis” value ([10]; B1 treated group (untreated control 3.75)) of the same molecule?
A: The value was 1.33 per mice.

Q: What about the “counts of live M1 model macrophages vs control” value [11] of the same molecule?
A: The value was “did not affect viability; also recorded: did not differ”.

Q: And the “effect on mTOR pathway” value [12]?
A: Its value is “not affecting”.

Q: What about the “concentration of B1 in the tumors” value ([13]; 8 and 12 hours post-injection, mass spectrometry) of the same molecule?
A: The value was “up to 30.5 ng/g”.

Q: What about the tissue localization ([13]; RPMI 8226 xenograft) of the same molecule?
A: Its tissue localization is “localized to the xenografted tumor site”.
